Experimental data from ChEMBL document CHEMBL5038640, “Natural Berberine-derived Azolyl Ethanols as New Structural Antibacterial Agents against Drug-Resistant Escherichia coli” (J Med Chem, 2022).

Tests used:
Acinetobacter baumannii = assay: Antibacterial activity against Acinetobacter baumannii assessed as decrease in bacterial growth incubated for 18 hrs by broth microdilution method; format: functional
Enterococcus faecalis = assay: Antibacterial activity against Enterococcus faecalis assessed as decrease in bacterial growth incubated for 18 hrs by broth microdilution method; format: functional
Pseudomonas aeruginosa [1] = assay: Antibacterial activity against Pseudomonas aeruginosa assessed as decrease in bacterial growth incubated for 18 hrs by broth microdilution method; format: functional
[2] = Aqueous solubility of the compound in saline; format: physicochemical
Klebsiella pneumoniae = assay: Antibacterial activity against Klebsiella pneumoniae assessed as decrease in bacterial growth incubated for 18 hrs by broth microdilution method; format: functional
Escherichia coli [3] = assay: Antibacterial activity against Escherichia coli ATCC 25922 assessed as decrease in bacterial growth incubated for 18 hrs by broth microdilution method; format: functional
Staphylococcus aureus [4] = assay: Antibacterial activity against Staphylococcus aureus ATCC 25923 assessed as decrease in bacterial growth incubated for 18 hrs by broth microdilution method; format: functional
Staphylococcus aureus [5] = assay: Antibacterial activity against Staphylococcus aureus ATCC 29213 assessed as decrease in bacterial growth incubated for 18 hrs by broth microdilution method; format: functional
Escherichia coli [6] = assay: Antibacterial activity against Escherichia coli assessed as decrease in bacterial growth incubated for 18 hrs by broth microdilution method; format: functional
Pseudomonas aeruginosa [7] = assay: Antibacterial activity against Pseudomonas aeruginosa ATCC 27853 assessed as decrease in bacterial growth incubated for 18 hrs by broth microdilution method; format: functional
Staphylococcus aureus [8] = assay: Antibacterial activity against Staphylococcus aureus assessed as decrease in bacterial growth incubated for 18 hrs by broth microdilution method; format: functional
Staphylococcus aureus [9] = assay: Antibacterial activity against methicillin-resistant Staphylococcus aureus N315 assessed as decrease in bacterial growth incubated for 18 hrs by broth microdilution method; format: functional

Row | Structure (SMILES) | MIC (Acinetobacter baumannii) | MIC (Enterococcus faecalis) | MIC (Pseudomonas aeruginosa [1]) | solubility [2] | MIC (Klebsiella pneumoniae) | MIC (Escherichia coli [3]) | MIC (Staphylococcus aureus [4]) | MIC (Staphylococcus aureus [5]) | MIC (Escherichia coli [6]) | MIC (Pseudomonas aeruginosa [7]) | MIC (Staphylococcus aureus [8]) | MIC (Staphylococcus aureus [9])
1 | COc1ccc2cc3[n+](cc2c1OCC(O)Cn1cc(C=O)c2ccccc21)CCc1cc2c(cc1-3)OCO2.[Br-] (stereo unspecified) | 106 µM | 53 µM | 106 µM | 790 µM | 106 µM | 53 µM | 53 µM | 53 µM | 53 µM | 27 µM | 53 µM | 106 µM
2 | COc1ccc2cc3[n+](cc2c1OCC(O)Cn1ccnc1-c1ccccc1)CCc1cc2c(cc1-3)OCO2.[Br-] (stereo unspecified) | 27 µM | 106 µM | 106 µM | 701 µM | 53 µM | 106 µM | 53 µM | 53 µM | 27 µM | 106 µM | 106 µM | 7 µM
3 | CCN(CC)CC(O)COc1c(OC)ccc2cc3[n+](cc12)CCc1cc2c(cc1-3)OCO2.[Br-] (stereo unspecified) | 60 µM | 120 µM | 60 µM | 3320 µM | 241 µM | 120 µM | 120 µM | 60 µM | 241 µM | 60 µM | 60 µM | 60 µM
4 | COc1ccc2cc3[n+](cc2c1OCC(O)Cn1cnc2ccccc21)CCc1cc2c(cc1-3)OCO2.[Br-] (stereo unspecified) | 56 µM | 56 µM | 111 µM | 1720 µM | 56 µM | 56 µM | 56 µM | 56 µM | 28 µM | 56 µM | 111 µM | 56 µM
5 | CCN(CCO)CC(O)COc1c(OC)ccc2cc3[n+](cc12)CCc1cc2c(cc1-3)OCO2.[Br-] (stereo unspecified) | 468 µM | 468 µM | 468 µM | 3720 µM | 468 µM | 234 µM | 468 µM | 234 µM | 234 µM | 468 µM | 468 µM | 468 µM
6 | COc1ccc2cc3[n+](cc2c1OCC(O)Cn1nnnc1C)CCc1cc2c(cc1-3)OCO2.[Br-] (stereo unspecified) | 121 µM | 121 µM | 121 µM | 2150 µM | 121 µM | 121 µM | 61 µM | 61 µM | 121 µM | 121 µM | 121 µM | 121 µM
7 | COc1ccc2cc3[n+](cc2c1OC)CCc1cc2c(cc1-3)OCO2 [BERBERINE] | 1380 µM | 344 µM | 344 µM | 751 µM | 172 µM | 172 µM | 344 µM | 172 µM | 344 µM | 344 µM | 344 µM | 689 µM
8 | COc1ccc2cc3[n+](cc2c1OCC(O)Cn1nnc2ccccc21)CCc1cc2c(cc1-3)OCO2.[Br-] (stereo unspecified) | 111 µM | 111 µM | 111 µM | 1720 µM | 111 µM | 111 µM | 55 µM | 55 µM | 111 µM | 111 µM | 111 µM | 111 µM
9 | COc1ccc2cc3[n+](cc2c1OCC(O)CSc1nccn1C)CCc1cc2c(cc1-3)OCO2.[Br-] (stereo unspecified) | 56 µM | 56 µM | 112 µM | 791 µM | 112 µM | 112 µM | 56 µM | 112 µM | 28 µM | 112 µM | 112 µM | 56 µM
10 | COc1ccc2cc3[n+](cc2c1OCC(O)Cn1ccnc1)CCc1cc2c(cc1-3)OCO2.[Br-] (stereo unspecified) | 61 µM | 124 µM | 124 µM | 1800 µM | 61 µM | 124 µM | 124 µM | 124 µM | 61 µM | 124 µM | 124 µM | 61 µM
11 | COc1ccc2cc3[n+](cc2c1OCC(O)Cn1cnc([N+](=O)[O-])c1)CCc1cc2c(cc1-3)OCO2.[Br-] (stereo unspecified) | 112 µM | 112 µM | 112 µM | 936 µM | 56 µM | 112 µM | 112 µM | 56 µM | 28 µM | 56 µM | 112 µM | 56 µM
12 | COc1ccc2cc3[n+](cc2c1OCC(O)Cn1cnc2cc([N+](=O)[O-])ccc21)CCc1cc2c(cc1-3)OCO2.[Br-] (stereo unspecified) | 103 µM | 51 µM | 103 µM | 895 µM | 103 µM | 103 µM | 26 µM | 51 µM | 51 µM | 26 µM | 103 µM | 103 µM
13 | COc1ccc2cc3[n+](cc2c1OCC(O)CN1CCCC1)CCc1cc2c(cc1-3)OCO2.[Br-] (stereo unspecified) | 121 µM | 121 µM | 121 µM | 2340 µM | 242 µM | 121 µM | 121 µM | 121 µM | 242 µM | 121 µM | 60 µM | 121 µM
14 | COc1ccc2cc3[n+](cc2c1OCC(O)CSc1nnc(C)s1)CCc1cc2c(cc1-3)OCO2.[Br-] (stereo unspecified) | 108 µM | 108 µM | 108 µM | 1180 µM | 108 µM | 108 µM | 108 µM | 108 µM | 108 µM | 108 µM | 108 µM | 108 µM
15 | COc1ccc2cc3[n+](cc2c1OCC(O)CSc1nc2ccccc2[nH]1)CCc1cc2c(cc1-3)OCO2.[Br-] (stereo unspecified) | 26 µM | 53 µM | 105 µM | 783 µM | 53 µM | 105 µM | 53 µM | 53 µM | 53 µM | 53 µM | 105 µM | 53 µM
16 | COc1ccc2cc3[n+](cc2c1OCC(O)CSc1nc[nH]n1)CCc1cc2c(cc1-3)OCO2.[Br-] (stereo unspecified) | 114 µM | 114 µM | 114 µM | 801 µM | 57 µM | 114 µM | 114 µM | 114 µM | 57 µM | 114 µM | 114 µM | 57 µM
17 | COc1ccc2cc3[n+](cc2c1OCC(O)Cn1cnnc1)CCc1cc2c(cc1-3)OCO2.[Br-] (stereo unspecified) | 243 µM | 243 µM | 243 µM | 1100 µM | 121 µM | 243 µM | 243 µM | 243 µM | 121 µM | 121 µM | 243 µM | 243 µM
18 | COc1ccc2cc3[n+](cc2c1OCC(O)CN1CCNCC1)CCc1cc2c(cc1-3)OCO2.[Br-] (stereo unspecified) | 118 µM | 118 µM | 15 µM | 3810 µM | 15 µM | 235 µM | 235 µM | 118 µM | 118 µM | 118 µM | 118 µM | 59 µM
